Experiments:
splenocytes = experiment: Epitopes mapping of T cells (splenocytes re-stimulated in vitro); type: cell-based, BALB/c mice; conditions: 5 μg/ml peptide or 60 μg/ml Hsp70, 24 h; for CD4+Foxp3+ (Tregs) cells percentage (FIG. 16 A): compared with DMSO
[1] = system: cutaneous allograft (B6 donor skin in BALB/c recipients); experiment: Murine model of cutaneous allograft, graft immersion-treatment; type: in vivo, mice (Mus musculus)
Source text: A method for treating grafts, including allografts, was developed by the inventors of the present invention. Thus, the method treats the grafts (that may be full organs) instead of recipient that will receive the graft, using as tool a classic murine model of skin transplantation and well established. Such method, to the light of the inventors, may be considered as new and inventive. The said model consists of a complete incompatibility of MHC molecules and was described by BILLINGHAM & MEDAWAR (1951).
BALB/c recipients, which express the MHC II I-A^d molecule, are anaesthetized and the dorsal stem hairs are removed. In the waxed area, 1 cm^2 of the skin was removed in each recipient mouse and the donor tail skin was sutured in the exposed area. The animals are maintained in individual cages and daily monitored. The graft rejection is confirmed by observing the cyanosis, erythema, erosion and cutaneous graft loss.
This model consists of a complete incompatibility of MHC molecules and was described by BILLINGHAM & MEDAWAR (1951). In this model, the donor mouse B6, which expresses the MHC II I-A^b molecule, is sacrificed. […] After this period, the grafts were sutured in the BALB/c recipients' back, who express the MHC II I-A^d molecule, and the rejection clinical progression is daily monitored.
After that, the grafts were sutured in the BALB/c (I-Ad) animals' back. The animals were daily monitored. ***, p<0.0001. n=22-24 mice per group. The results achieved putting the seven independent experiments together.
After this, these grafts were sutured in BALB/c recipients WT and their rejection were daily monitored.
After this, the grafts were sutured in the BALB/c (I-Ad) animals' back. The animals were daily monitored. *, p<0.05. n=4 mice per group.

STAT3 = experiment: p-STAT3 intracellular marking in BMDCs; type: cell-based, mice (Mus musculus); conditions: BMDCs, 30 μM inhibitor previous to Hsp70
Protocol: As positive control, the cells were stimulated with […] of phorbol myristate acetate (PMA) for 30 minutes. After the stimuli in the periods mentioned, the cells were fixed with Cytofix Buffer (BD Biosciences) for 10 minutes at 37° C. and permeated with Phosflow Perm Buffer III (BD Biosciences) for 30 minutes on ice. After such procedures, the cells were marked for p-ERK1/2 and p-STAT3.
For analyzing the recipients T cells, the cells were marked for CD4 (GK1.5), CD8a (53-6.7), Foxp3 (MF23), Ki67 (B56) achieved from BD Biosciences. […] The levels of phosphorylated ERK and STAT3 were determined using antibodies for p-ERK1/2 and p-STAT3 (BD Biosciences) in BMDCs previously fixed and permeablized. The cells were subsequently analyzed in the flow cytometer FACSCanto II (BD Biosciences) with the BD FACSDiva (BD Biosciences) program. The data achieved were analyzed with the Flowjo program (version 7.6.5, Tree Star).
The p-ERK expression was measured by flow cytometry. […] The p-STAT3 expression was measured by flow cytometry. […] After that, the IL-10 mRNA levels were measured by Real-time PCR and the concentration of this cytokine by flow cytometry, using the kit CBA Mouse Inflammation. […] After that, the MARCH-I mRNA levels were analyzed by Real-time PCR. […]

MARCH-I = MARCH-I mRNA in DCs by real time PCR; type: cell-based, mice (Mus musculus); conditions: DCs from IL-10 knockout animals, 24 h; compared with DCs WT
Protocol: The supernatants were collected and used for analyzing cytokine. The cells were further treated with 20 ng/ml of Rapamycin (Cell Signaling), 1 μg/ml of Cyclosporine A (Roche) or 20 ng/ml of IL-10 recombinant murine (R&D System) for 24 h and the total RNA was removed.
The total RNA was isolated from the DCs treated using the kit RNAeasy (Qiagen), according to the manufacturer instructions. The total purified RNA concentration was determined with the kit Qubit® RNA Assay Kit (Invitrogen), read in the Qubit® Fluorometer (Invitrogen). 50 ng of the RNA had reverse transcriptase with 100 U of Sensiscript (Qiagen). DNA concentrations were determined with the kit Qubit® dsDNA HS Assay (Invitrogen), read in the Qubit® Fluorometer (Invitrogen). In a final volume of 10 μL, 8 ng of cDNA were applied using some assays Taqman® Gene Expression (Applied Biosystems): IL10 (Mm00439614_m1), March1 (Mm00613524_m1) and β-actin (4352933E), according to the manufacturer recommendations.
The quantitative real time PCR was performed in the instrument StepOne™ Real-Time PCR System (Applied Biosystems). The relative levels of mRNA were calculated according to the comparative method of Ct, described by […] & LIVAK (2008). The β-actin constituent gene was used as setter. Non-treated DCs served as reference for OVA or Hsp70-treated DCs.
After that, IL-10 mRNA levels were analyzed by Real-time PCR. The β-actin was used as a setter. The IL-10 concentration was measured in the cultures supernatant by flow cytometry. […] (C) As in A, however the MARCH-I mRNA levels were analyzed by Real-time PCR. […] DCs IL-10 KO were also treated with Recombinant IL-10. All treatments were performed for 24 h and MARCH-I mRNA levels were analyzed by Real-time PCR. […] After this period, grafts were sutured in the BALB/c animals' back and the acceptance was daily monitored. Graphs expressed on average ±SEM. *, p<0.05; **, p<0.01; ***, […]. n=3-5 mice per group. Representative results of 3 independent experiments.
After this period, the MARCH-I expression increase was analyzed by Real-time PCR.

[2] = system: cutaneous allograft (B6 donor skin in BALB/c recipients); experiment: Cutaneous allograft model, graft immersion followed by topic application; type: in vivo, mice (Mus musculus); conditions: immersion plus 7 days of topic application (group '- 7 days')
Source text: That is, animals that received grafts treated with Hsp70 receive the local application of a Hsp70 solution and the same for OVA.
After this, the grafts were sutured in BALB/c (I-A^d) animals' back. […] The animals were daily monitored. (A) Schematic representation of the treatment strategy used in the experiment. (B) Photographic record of the clinical progression of the acute rejection in groups Hsp70 and OVA. […] Data achieved from previous experiments.

In the case of VGGSTRMPAVTDLVK [Peptide 2], the “IL-10 production by splenocytes (FIG. 16 B)” value (splenocytes) is reported as “small increase”, the “CD4+Foxp3+ (Tregs) cells percentage (FIG. 16 A)” value (splenocytes) is reported as “quite significant increase” and the “graft acceptance after immersion with Hsp70 or peptides (FIG. 17)” value ([1]; 60 μg/ml Hsp70 or 15 μg/ml peptide, 60 minutes at 4° C., compared to OVA peptide and peptide 5) is reported as “strong tendency in lengthen the graft acceptance”.

With COc1cccc(-c2cc(=O)c3ccccc3o2)c1N [PD98059, reference compound] the “STAT3 activation against the stimulus with Hsp70 after ERK inhibition (FIG. 13 E)” value (STAT3) was “removed the STAT3 activation”.

For “KYTAPEISARILMKL (Heat Shock Protein HSP70) [Peptide 5]”, the “CD4+Foxp3+ (Tregs) cells percentage (FIG. 16 A)” value (splenocytes) was “increase in the Tregs production”.

B1: recombinant murine IL-10: IL-10 recombinant murine (R&D System), positive control (protein, UniProt P18893 19-178, looked up)
Interleukin-10: SRGQYSREDNNCTHFPVGQSHMLLELRTAFSQVKTFFQTKDQLDNILLTDSLMQDFKGYLGCQALSEMIQFYLVEVMPQAEKHGPEIKEHLNSLGEKLKTLRMRLRRCHRFLPCENKSKAVEQVKSDFNKLQDQGVYKAMNEFDIFINCIEAYMMIKMKS
In the case of B1, the “MARCH-I mRNA levels in DCs IL-10 KO (FIG. 11 D)” value (MARCH-I) is reported as “reestablished partially”.

B2: OVA: egg albumin (OVA), control protein (protein, UniProt P01012 2-386, looked up)
Ovalbumin: GSIGAASMEFCFDVFKELKVHHANENIFYCPIAIMSALAMVYLGAKDSTRTQINKVVRFDKLPGFGDSIEAQCGTSVNVHSSLRDILNQITKPNDVYSFSLASRLYAEERYPILPEYLQCVKELYRGGLEPINFQTAADQARELINSWVESQTNGIIRNVLQPSSVDSQTAMVLVNAIVFKGLWEKAFKDEDTQAMPFRVTEQESKPVQMMYQIGLFRVASMASEKMKILELPFASGTMSMLVLLPDEVSGLEQLESIINFEKLTEWTSSNVMEERKIKVYLPRMKMEEKYNLTSVLMAMGITDVFSSSANLSGISSAESLKISQAVHAAHAEINEAGREVVGSAEAGVDAASVSEEFRADHPFLFCIKHIATNAVLFFGRCVSP
With B2 the Survival median [2] was 14.0 days, the “Survival” value ([2]; individual mice) was 16 days and the Survival average ([1]; graft immersed in 60 μg/mL for 60 minutes, seven independent experiments) was 14.0 days.
